{"source": "patent US6495525B1", "about": "“VLA-4 inhibitor: oMePUPA-V” (Biogen, Inc., priority 1998, dated 2002)", "key": {"[1]": {"target": "T1, α4β7 (Homo sapiens, UniProt P13612+P26010)", "T1 construct": "endogenous in cells; host or cells: JY cells", "T1 sequence (P13612 34-1032)": "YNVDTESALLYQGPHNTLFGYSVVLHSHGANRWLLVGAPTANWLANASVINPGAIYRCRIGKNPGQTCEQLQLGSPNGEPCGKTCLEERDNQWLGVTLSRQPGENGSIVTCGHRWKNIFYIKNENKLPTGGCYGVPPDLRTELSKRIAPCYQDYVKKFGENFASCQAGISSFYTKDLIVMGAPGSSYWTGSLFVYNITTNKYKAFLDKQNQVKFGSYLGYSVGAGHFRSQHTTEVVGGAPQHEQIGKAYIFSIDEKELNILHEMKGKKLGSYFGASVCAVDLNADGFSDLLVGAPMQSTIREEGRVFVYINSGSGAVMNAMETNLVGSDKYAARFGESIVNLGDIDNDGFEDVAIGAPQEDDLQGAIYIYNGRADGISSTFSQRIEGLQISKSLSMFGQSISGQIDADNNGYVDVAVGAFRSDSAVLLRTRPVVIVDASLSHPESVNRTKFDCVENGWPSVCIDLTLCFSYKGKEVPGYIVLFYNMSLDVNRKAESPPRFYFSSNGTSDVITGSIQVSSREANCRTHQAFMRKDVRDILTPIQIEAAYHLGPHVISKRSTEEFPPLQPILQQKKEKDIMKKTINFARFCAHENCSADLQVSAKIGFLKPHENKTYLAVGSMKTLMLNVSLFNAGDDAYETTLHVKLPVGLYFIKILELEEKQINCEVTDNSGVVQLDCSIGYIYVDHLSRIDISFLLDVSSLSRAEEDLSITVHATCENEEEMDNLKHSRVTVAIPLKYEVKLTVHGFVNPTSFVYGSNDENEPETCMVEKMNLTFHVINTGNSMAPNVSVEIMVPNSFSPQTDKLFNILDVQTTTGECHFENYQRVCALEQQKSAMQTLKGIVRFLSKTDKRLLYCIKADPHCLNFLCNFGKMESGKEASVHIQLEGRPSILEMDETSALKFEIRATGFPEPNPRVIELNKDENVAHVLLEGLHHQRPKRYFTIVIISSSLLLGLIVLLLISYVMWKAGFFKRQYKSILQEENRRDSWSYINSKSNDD", "T1 sequence (P26010 20-798)": "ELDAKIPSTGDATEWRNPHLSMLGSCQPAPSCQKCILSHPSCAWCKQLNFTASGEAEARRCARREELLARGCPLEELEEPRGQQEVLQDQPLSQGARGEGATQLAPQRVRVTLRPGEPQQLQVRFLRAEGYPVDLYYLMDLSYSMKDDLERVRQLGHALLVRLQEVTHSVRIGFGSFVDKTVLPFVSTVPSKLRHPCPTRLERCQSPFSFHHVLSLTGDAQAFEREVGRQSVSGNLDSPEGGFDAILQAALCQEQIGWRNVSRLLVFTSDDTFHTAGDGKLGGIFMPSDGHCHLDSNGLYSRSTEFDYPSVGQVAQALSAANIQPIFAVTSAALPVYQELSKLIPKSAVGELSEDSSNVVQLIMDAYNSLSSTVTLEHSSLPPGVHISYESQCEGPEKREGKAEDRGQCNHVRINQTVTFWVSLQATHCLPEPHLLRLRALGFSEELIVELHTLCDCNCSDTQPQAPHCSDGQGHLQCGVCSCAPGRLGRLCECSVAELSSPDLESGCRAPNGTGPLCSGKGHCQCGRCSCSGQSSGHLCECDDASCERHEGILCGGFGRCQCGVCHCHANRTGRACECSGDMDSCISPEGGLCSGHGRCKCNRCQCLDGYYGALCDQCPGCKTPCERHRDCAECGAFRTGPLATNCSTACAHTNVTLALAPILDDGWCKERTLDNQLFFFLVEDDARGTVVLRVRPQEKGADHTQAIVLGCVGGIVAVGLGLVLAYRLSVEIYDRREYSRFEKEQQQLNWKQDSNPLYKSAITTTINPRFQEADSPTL", "assay": "VCAM-Ig Direct Binding Assay on JY cells (α4β7)", "protocol": "In order to assess the VLA-4 inhibitory specificity of the compounds of this invention, assays for other major groups of integrins, i.e., β2and β3, as well as other β1 integrins, such as VLA-5, VLA-6 and α4β7 are performed. These assays may be similar to the adhesion inhibition and direct binding assays described above, substituting the appropriate integrin-expressing cell and corresponding ligand. For example, polymorphonuclear cells (PMNs) express β2 integrins on their surface and bind to ICAM. β3 integrins are involved in platelet aggregation and inhibition may be measured in a standard platelet aggregation assay. VLA-5 binds specifically to Arg-Gly-Asp sequences, while VLA-6 binds to laminin. α4β7 is a recently discovered homologue of VLA-4, which also binds fibronectin and VCAM. Specificity with respect to α4β7 is determined in a binding assay that utilizes the above-described VCAM-IgG-enzyme marker conjugate and a cell line that expresses α4β7, but not VLA-4, such as RPMI-8866 or JY cells.\nBinding to α4β7 was assessed on JY cells in the presence of Mn^+2. In the binding assay, VCAM-Ig and oMePUPA-V compete for binding to α4β7 on JY cells (See section 4.1.1 for assay protocol). In the cell adhesion assay, oMePUPA-V was tested for its ability to block JY (α4β7) cell binding to CS1/BSA conjugate"}, "[2]": {"assay": "Crystallinity", "format": "physicochemical"}}, "data": [{"compound": "Cc1ccccc1NC(=O)Nc1ccc(CC(=O)N2CCC[C@H]2C(=O)N[C@H](C)CC(=O)O)cc1", "note": "[oMePUPA-V]", "values": [{"measurement": "measurable activity against α4β7", "setting": "[1]", "value": "> 100", "unit": "µM"}, {"measurement": "inhibition at 100 µM", "setting": "[1]; @ 100 μM, Mn+2, read-out: inhibition, JY (α4β7) VCAM-Ig DBA", "value": 3, "unit": "%"}, {"measurement": "blocking of α4β7 binding to VCAM-Ig (in words)", "setting": "[1]; JY cells, Mn+2", "value": "does not block"}, {"measurement": "IC50", "setting": "[1]; read-out: IC50 against α4β7-VCAM-Ig binding", "value": "> 100", "unit": "µM"}, {"measurement": "Crystallinity", "setting": "[2]", "value": "YES"}]}]}
